Format: in vivo
Settings: rats which consumed a bait comprising 15 ppm of difethialone of the prior art
Description: For comparative purposes, the difethialone content retained in the liver of rats which consumed a bait comprising 15 ppm of difethialone of the prior art is about 110 μg/gram.

## O=c1sc2ccccc2c(O)c1C1CC(c2ccc(-c3ccc(Br)cc3)cc2)Cc2ccccc21 (stereo not shown) [difethialone, 3-(4′-bromobiphenyl-4-yl)-1-(4-hydroxythiocoumarin-3-yl)-1,2,3,4-tetrahydronaphthalene]
  Difethialone content retained in the liver: about 110 μg/gram

Source: patent publication US20180098538A1, “CONFIGURATIONAL STEREOISOMER OF DIFETHIALONE, COMPOSITION AND RODENTICIDAL BAIT COMPRISING SAME, AND PROCESS FOR CONTROLLING TARGET RODENT PESTS” (priority 2015, published 2018)
